Patent US9862754B2, “Peptide analogs for treating diseases and disorders” (KeyBioscience AG, priority 2011, dated 2018)
Bridge positions count the residues as written; N and C are the ends. Ends that are not written are not given here.

Experiments:
[1] = Example 7: combination with metformin in Zucker Diabetic Fatty rats, FPG, PPG, HbA1c; type: in vivo, rat; settings: ZDF rats; 8 weeks once daily; metformin 400 mg/kg/day oral, UGP302 5 μg/kg/day s.c.
Experimental: (§1) To assess the potential of UGP302 (SEQ ID NO: 15) in combination with metformin, Zucker Diabetic Fatty rats were used. At the age of 6 weeks 40 rats were randomized into four groups according to HbA1c, FPG and BW. The groups were: Control (Vehicle), Metformin 400 mg/kg/day, UGP302 5 μg/kg/day and the combination of the two molecules in the stated respective amounts. The treatments were given once daily, and metformin was dosed orally, while UGP302 was given subcutaneously, and the animals were treated for 8 weeks. Fasting blood glucose (FPG) and non-fasted blood glucose (PPG) were monitored biweekly, while HbA1c was measured at termination.

CTX-I = assay: Example 6: serum CTX-I (RatLaps ELISA), bone resorption in DIO rats; type: in vivo, rat; settings: 1 mg/kg p.o. with 150 mg/kg 5-CNAC, 2 hours after treatment, vs sCT
Experimental: (§2) The effect of sCT/calcitonin mimetic on bone and cartilage loss was studied in DIO rats. The animals were dosed as described in Table 6 below, and 2 hours after treatment blood sampling was done by heated tail venous puncture.
(§3) Serum CTX-I levels, as an indication of bone resorption, were measured using the RatLaps™ ELISA, and serum CTX-II levels, as an indication of cartilage degradation, were measured using the Serum PC Cartilaps™ ELISA.

CTX-II = assay: Example 6: serum CTX-II (Serum PC Cartilaps ELISA), cartilage degradation in DIO rats; type: in vivo, rat; settings: 1 mg/kg p.o. with 150 mg/kg 5-CNAC, 2 hours after treatment, vs sCT
Experimental: as §2, §3

[2] = Example 7: oral glucose tolerance test in Zucker Diabetic Fatty rats; type: in vivo, rat; settings: ZDF rats; metformin 400 mg/kg/day oral, UGP302 5 μg/kg/day s.c.
Experimental: as §1
To further assess the effect of both single doses of each molecule and the combination of these at those same doses, the rats underwent an oral glucose tolerance test (OGTT, FIGS. 23A-23B) and an insulin tolerance test (ITT, FIGS. 24A-24B).

[3] = target: T1, T47D cell calcitonin receptors (Homo sapiens, UniProt P30988); assay: Example 4: T47D bioassay, binding of sCT analogs to T47D cell calcitonin receptors (cAMP); type: cell-based; settings: T47D cells; sCT set at 100% at 1000 pg/mL; various concentrations
T1 construct: This cell line is known to have the following receptors: calcitonin, androgen, progesterone; endogenous in cells; host or cells: T47D (human breast epithelial cell line)
T1 sequence (P30988 25-474): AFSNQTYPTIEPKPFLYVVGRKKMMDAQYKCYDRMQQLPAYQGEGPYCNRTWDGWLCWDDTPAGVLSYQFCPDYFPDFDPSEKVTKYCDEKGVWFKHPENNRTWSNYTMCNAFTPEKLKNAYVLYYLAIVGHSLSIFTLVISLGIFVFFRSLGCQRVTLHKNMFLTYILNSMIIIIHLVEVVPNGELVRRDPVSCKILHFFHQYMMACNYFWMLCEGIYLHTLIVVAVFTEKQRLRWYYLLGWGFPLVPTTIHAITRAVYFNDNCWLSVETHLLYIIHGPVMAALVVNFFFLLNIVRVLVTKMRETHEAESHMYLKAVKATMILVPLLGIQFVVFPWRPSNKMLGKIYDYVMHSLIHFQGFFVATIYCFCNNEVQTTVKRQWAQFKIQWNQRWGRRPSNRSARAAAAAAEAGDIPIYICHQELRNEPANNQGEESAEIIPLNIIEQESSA
Experimental: sCT analogs at various concentrations were tested in a T47D (human breast epithelial cell line) bioassay. This cell line is known to have the following receptors: calcitonin, androgen, progesterone, glucocrticoid, prolactin and estrogen. The results are presented in FIG. 11 as % cAMP binding relative to sCT which was set at 100% cAMP binding at a concentration of 1000 pg/mL.

[4] = Example 1: OGTT after 2 weeks of oral treatment in DIO rats; type: in vivo, rat; settings: after 2 weeks of treatment, overnight fasting, 1 mg/kg p.o., vs oral vehicle
Experimental: Drug administration by per oral (p.o.) gavage b.i.d. (7-8 am and 3-4 pm) during the study period and as single dose in the morning prior to start of OGTT.
Animals were given 2 g/kg single dose dissolved in milliQ H20.
OGTT Following Overnight Fasting (16 h):
Blood sampling and glycemia were measured by heated tail venous puncture.
Whole blood glucose levels were determined with an ACCU-CHEK® Avia blood glucose meter (Roche Diagnostics, Rotkreuz, Switzerland). Blood (approx 300 ul) is collected in 1 ml MiniCollect K3EDTA plasma-tube (Greiner-Bio-One GmbH, Frickenhausen, Germany), inverted, and stored on ice. Tubes are centrifuged 3000×g (5000 rpm in table centrifuge) for 10 min at 4° C. and plasma obtained. Plasma samples are stored at −20° C. until analysis. A total of ˜2.5 ml blood is obtained during OGTT (˜0.3% of body weight).
Statistical analysis was performed by one-way ANOVA followed by the Dunnett's post hoc test for multiple comparison. Student's t-test was performed to compare two paired group. All analysis was performed using GRAPHPAD PRISM software (GraphPad Prism, San Diego, Calif. U.S.A). Incremental area under curve (iAUC) during OGTT was calculated by the trapezoidal method. A value of P<0.05 was considered to be significant. All data are presented as mean±standard error of the mean (SEM). […]

| Substance | fasting blood glucose (FPG) [1] | non-fasted blood glucose (PPG) [1] | bone resorption (serum CTX-I levels) (CTX-I) | cartilage degradation (serum CTX-II levels) (CTX-II) | glucose tolerance (OGTT) [2] | % cAMP binding relative to sCT [3] | glucose iAUC during OGTT [4] |
| --- | --- | --- | --- | --- | --- | --- | --- |
| Ac-CSNLSTCVLGKLSQELHKLQTYPRTDVGANAP-NH2 (Ac-CSNLSTCVLGKLSQELHKLQTYPRTDVGANAP-NH2; ends and bridges not checked) [UGP302, calcitonin mimetic] | pronounced reduction throughout the study | pronounced reduction throughout the study | stronger effect in reduction | stronger effect in reduction | individually improve | highest level of binding of all the tested compounds | – |
| salmon calcitonin (CSNLSTCVLGKLSQELHKLQTYPRTNTGSGTP-NH2; disulfide 1-7; ends not checked) [sCT, reference compound] | – | – | – | – | – | – | significantly reduced glucose iAUC |
